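Dose response: 5 concentrations. Exposure: 48 h. Format: 96-well plates. Endpoint: linear interpolation; highest concentration if not reached. GI50 = concentration required for 50% inhibition of growth.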 Active and inactive are the calls of the source. No stated cut-off is given here; in the data, active = GI50 up to about 1.1 µM and inactive = higher.
What was measured:
Assay in all cases: NCI-60 cell line screen, 48 h
U-251 = tested on: U-251
SK-MEL-2 = tested on: SK-MEL-2
KM12 = tested on: KM12
HCT-15 = tested on: HCT-15
IGROV-1 = tested on: IGROV-1
HT-29 = tested on: HT-29
786-0 = tested on: 786-0
RPMI-8226 = tested on: RPMI-8226
SNB-75 = tested on: SNB-75
NCI-H226 = tested on: NCI-H226
OVCAR-3 = tested on: OVCAR-3
UACC-62 = tested on: UACC-62
SNB-78 = tested on: SNB-78
OVCAR-4 = tested on: OVCAR-4
DMS-273 = tested on: DMS-273
SF-539 = tested on: SF-539
M14 = tested on: M14
HCT-116 = tested on: HCT-116
NCI-H460 = tested on: NCI-H460
ACHN = tested on: ACHN
DLD-1 = tested on: DLD-1
SR = tested on: SR
SK-OV-3 = tested on: SK-OV-3
CAKI-1 = tested on: CAKI-1
HOP-62 = tested on: HOP-62
EKVX = tested on: EKVX
KM-20L2 = tested on: KM-20L2
SK-MEL-28 = tested on: SK-MEL-28
SN12C = tested on: SN12C
NCI-H23 = tested on: NCI-H23
HL-60 = tested on: HL-60
RXF 393 = tested on: RXF 393
K562 = tested on: K562
A498 = tested on: A498
SF-295 = tested on: SF-295
SW-620 = tested on: SW-620
Malme-3M = tested on: Malme-3M
A549 = tested on: A549
OVCAR-8 = tested on: OVCAR-8
HOP-18 = tested on: HOP-18
COLO 205 = tested on: COLO 205
SK-MEL-5 = tested on: SK-MEL-5
SF-268 = tested on: SF-268
UO-31 = tested on: UO-31
OVCAR-5 = tested on: OVCAR-5
LOX IMVI = tested on: LOX IMVI
HCC 2998 = tested on: HCC 2998
LXFL 529 = tested on: LXFL 529
CCRF-CEM = tested on: CCRF-CEM
UACC-257 = tested on: UACC-257
MOLT-4 = tested on: MOLT-4
SNB-19 = tested on: SNB-19
NCI-H522 = tested on: NCI-H522
M19-MEL = tested on: M19-MEL
DMS-114 = tested on: DMS-114
TK-10 = tested on: TK-10
HOP-92 = tested on: HOP-92

COc1ccc(C#CCC(OC2OC(CO)C(O)C(O)C2O)C(O)c2ccc(OC)c(OC)c2)cc1OC (stereo not drawn)
GI50 (U-251): > 100 µM (inactive) | GI50 (SK-MEL-2): > 100 µM (inactive) | GI50 (KM12): > 100 µM (inactive) | GI50 (HCT-15): > 100 µM | GI50 (IGROV-1): > 100 µM (inactive) | GI50 (HT-29): > 100 µM (inactive) | GI50 (786-0): > 100 µM (inactive) | GI50 (RPMI-8226): > 100 µM (inactive) | GI50 (SNB-75): > 100 µM (inactive) | GI50 (NCI-H226): > 100 µM (inactive) | GI50 (OVCAR-3): > 100 µM (inactive) | GI50 (UACC-62): 61.7 µM (inactive) | GI50 (SNB-78): > 100 µM (inactive) | GI50 (OVCAR-4): > 100 µM (inactive) | GI50 (DMS-273): > 100 µM (inactive) | GI50 (SF-539): > 100 µM (inactive) | GI50 (M14): > 100 µM (inactive) | GI50 (HCT-116): > 100 µM (inactive) | GI50 (NCI-H460): > 100 µM (inactive) | GI50 (ACHN): > 100 µM (inactive) | GI50 (DLD-1): > 100 µM (inactive) | GI50 (SR): > 100 µM (inactive) | GI50 (SK-OV-3): > 100 µM (inactive) | GI50 (CAKI-1): > 100 µM (inactive) | GI50 (HOP-62): > 100 µM (inactive) | GI50 (EKVX): 81.3 µM (inactive) | GI50 (KM-20L2): > 100 µM (inactive) | GI50 (SK-MEL-28): > 100 µM (inactive) | GI50 (SN12C): > 100 µM (inactive) | GI50 (NCI-H23): > 100 µM (inactive) | GI50 (HL-60): 61.1 µM (inactive) | GI50 (RXF 393): > 100 µM (inactive) | GI50 (K562): 57.4 µM (inactive) | GI50 (A498): > 100 µM (inactive) | GI50 (SF-295): > 100 µM (inactive) | GI50 (SW-620): > 100 µM (inactive) | GI50 (Malme-3M): > 100 µM (inactive) | GI50 (A549): > 100 µM (inactive) | GI50 (OVCAR-8): > 100 µM (inactive) | GI50 (HOP-18): > 100 µM (inactive) | GI50 (COLO 205): > 100 µM (inactive) | GI50 (SK-MEL-5): > 100 µM (inactive) | GI50 (SF-268): > 100 µM (inactive) | GI50 (UO-31): > 100 µM (inactive) | GI50 (OVCAR-5): > 100 µM (inactive) | GI50 (LOX IMVI): 22.8 µM (inactive) | GI50 (HCC 2998): > 100 µM (inactive) | GI50 (LXFL 529): > 100 µM (inactive) | GI50 (CCRF-CEM): 36.6 µM (inactive) | GI50 (UACC-257): > 100 µM (inactive) | GI50 (MOLT-4): > 100 µM (inactive) | GI50 (SNB-19): > 100 µM (inactive) | GI50 (NCI-H522): > 100 µM (inactive)

O=C(CSc1nnc(Cc2ccccc2)o1)Nc1ccc(Cl)cc1
GI50 (U-251): > 100 µM (inactive) | GI50 (SK-MEL-2): 82 µM (inactive) | GI50 (KM12): > 100 µM (inactive) | GI50 (HCT-15): > 100 µM | GI50 (IGROV-1): 92 µM (inactive) | GI50 (HT-29): 47.4 µM (inactive) | GI50 (786-0): > 100 µM (inactive) | GI50 (RPMI-8226): > 100 µM (inactive) | GI50 (SNB-75): 67.8 µM (inactive) | GI50 (NCI-H226): 86.5 µM (inactive) | GI50 (OVCAR-3): 68.2 µM (inactive) | GI50 (UACC-62): 41.8 µM (inactive) | GI50 (SNB-78): > 100 µM (inactive) | GI50 (OVCAR-4): 58.7 µM (inactive) | GI50 (DMS-273): 67.8 µM (inactive) | GI50 (M19-MEL): > 100 µM (inactive) | GI50 (SF-539): > 100 µM (inactive) | GI50 (DMS-114): 39.4 µM (inactive) | GI50 (M14): > 100 µM (inactive) | GI50 (HCT-116): > 100 µM (inactive) | GI50 (NCI-H460): 77.3 µM (inactive) | GI50 (ACHN): 75.9 µM (inactive) | GI50 (DLD-1): > 100 µM (inactive) | GI50 (SK-OV-3): > 100 µM (inactive) | GI50 (CAKI-1): 59.2 µM (inactive) | GI50 (HOP-62): > 100 µM (inactive) | GI50 (EKVX): 32.7 µM (inactive) | GI50 (KM-20L2): 78.5 µM (inactive) | GI50 (SK-MEL-28): > 100 µM (inactive) | GI50 (SN12C): > 100 µM (inactive) | GI50 (NCI-H23): 52.2 µM (inactive) | GI50 (HL-60): > 100 µM (inactive) | GI50 (RXF 393): > 100 µM (inactive) | GI50 (K562): 87.7 µM (inactive) | GI50 (A498): 46.8 µM (inactive) | GI50 (SF-295): 66.8 µM (inactive) | GI50 (SW-620): > 100 µM (inactive) | GI50 (Malme-3M): > 100 µM (inactive) | GI50 (A549): > 100 µM (inactive) | GI50 (OVCAR-8): 96.6 µM (inactive) | GI50 (TK-10): > 100 µM (inactive) | GI50 (HOP-18): > 100 µM (inactive) | GI50 (COLO 205): > 100 µM (inactive) | GI50 (SK-MEL-5): 57.8 µM (inactive) | GI50 (UO-31): > 100 µM (inactive) | GI50 (OVCAR-5): 70.3 µM (inactive) | GI50 (LOX IMVI): > 100 µM (inactive) | GI50 (HCC 2998): > 100 µM (inactive) | GI50 (LXFL 529): 86.3 µM (inactive) | GI50 (CCRF-CEM): > 100 µM (inactive) | GI50 (UACC-257): > 100 µM (inactive) | GI50 (MOLT-4): > 100 µM (inactive) | GI50 (SNB-19): > 100 µM (inactive) | GI50 (NCI-H522): 75.3 µM (inactive)

COc1ccc(CNC2=C(NC(C)=O)C(=O)c3ccccc3C2=O)cc1
GI50 (U-251): 12.4 µM (inactive) | GI50 (SK-MEL-2): 9.18 µM (inactive) | GI50 (KM12): 23 µM (inactive) | GI50 (HCT-15): 13.1 µM | GI50 (IGROV-1): 16.8 µM (inactive) | GI50 (HT-29): 29.4 µM (inactive) | GI50 (786-0): 24.4 µM (inactive) | GI50 (SNB-75): 12.8 µM (inactive) | GI50 (NCI-H226): 12.6 µM (inactive) | GI50 (OVCAR-3): 8.07 µM (inactive) | GI50 (UACC-62): 7.73 µM (inactive) | GI50 (SNB-78): 11.9 µM (inactive) | GI50 (OVCAR-4): 8.13 µM (inactive) | GI50 (DMS-273): 16.4 µM (inactive) | GI50 (M19-MEL): 9.48 µM (inactive) | GI50 (SF-539): 7.43 µM (inactive) | GI50 (HOP-92): 6.56 µM (inactive) | GI50 (M14): 19.4 µM (inactive) | GI50 (HCT-116): 5.09 µM (inactive) | GI50 (NCI-H460): 15.2 µM (inactive) | GI50 (ACHN): 2.07 µM (inactive) | GI50 (DLD-1): 8.53 µM (inactive) | GI50 (SR): 14 µM (inactive) | GI50 (SK-OV-3): 19.5 µM (inactive) | GI50 (HOP-62): > 50 µM (inactive) | GI50 (EKVX): 14.7 µM (inactive) | GI50 (KM-20L2): 28.8 µM (inactive) | GI50 (SK-MEL-28): 18.3 µM (inactive) | GI50 (SN12C): 16.8 µM (inactive) | GI50 (NCI-H23): 6.68 µM (inactive) | GI50 (HL-60): 1.69 µM (inactive) | GI50 (RXF 393): 6.41 µM (inactive) | GI50 (K562): 7.76 µM (inactive) | GI50 (SF-295): 17.8 µM (inactive) | GI50 (SW-620): 8.13 µM (inactive) | GI50 (Malme-3M): 8.32 µM (inactive) | GI50 (A549): 17.3 µM (inactive) | GI50 (OVCAR-8): 16.8 µM (inactive) | GI50 (TK-10): 10.6 µM (inactive) | GI50 (COLO 205): 9.44 µM (inactive) | GI50 (SK-MEL-5): 7.48 µM (inactive) | GI50 (SF-268): 18.9 µM (inactive) | GI50 (UO-31): 9.53 µM (inactive) | GI50 (LOX IMVI): 8.51 µM (inactive) | GI50 (HCC 2998): 48.4 µM (inactive) | GI50 (LXFL 529): 8.07 µM (inactive) | GI50 (CCRF-CEM): 8.73 µM (inactive) | GI50 (UACC-257): 8.77 µM (inactive) | GI50 (MOLT-4): 3.71 µM (inactive) | GI50 (SNB-19): 25.5 µM (inactive) | GI50 (NCI-H522): 1.37 µM (inactive)

Reference: ChEMBL document CHEMBL1201862, “PubChem BioAssay data set” (2004)
